Experimental data: patent US9192618B2, “Method of treating constipation-predominant irritable bowel syndrome” (Cedars-Sinai Medical Center, priority 2002, dated 2015)

Columns and labels:
IBS = conditions: literature report (ref. 21); cited from earlier work
[1] = tested on: irritable bowel syndrome (IBS) subjects; assay: Double-blind, randomized, placebo-controlled study of neomycin in IBS subjects (symptom questionnaire and lactulose breath test); assay type: in vivo, human; conditions: for patient-reported bowel normalization / reduction in composite score (CS): mean ± S.E.
Excerpt: In a double-blind, randomized, placebo-controlled study, we confirm that an abnormal lactulose breath test is more prevalent in IBS than normal controls, and that antibiotic treatment in IBS leads to an improvement in symptoms and that this is based on antibiotic-induced normalization of breath test. […] This is another important step in linking SIBO and IBS.
Study subjects were recruited by advertising in local newspapers, radio and IBS support groups throughout the greater Los Angeles area. To avoid referral bias, subjects were not recruited through the GI motility clinic or any gastroenterology practice based at Cedars-Sinai Medical Center. Subjects were included if they met Rome I criteria for IBS (7). […] Subjects were excluded if they had antibiotics within the previous three months, a previous lactulose breath test (LBT), or a history of diabetes, thyroid disease, intestinal surgery (except cholecystectomy or appendectomy), connective tissue disease, narcotic use or known gastrointestinal disease. Subjects with renal insufficiency, hearing impairment, probiotic use or allergy to aminoglycosides were also excluded. Approval from the institutional review board and written informed consent from the participating subjects were obtained.
Subjects presented to the GI Motility Laboratory having fasted from 7:00 p.m. the night before. They were instructed not to ingest legumes or a heavy meal for dinner the night prior to evaluation. Good oral hygiene was recommended and smoking was not permitted on the day of testing.
Prior to the LBT, subjects completed a symptom questionnaire asking them to grade nine IBS symptoms (abdominal pain, diarrhea, constipation, bloating, sense of incomplete evacuation, straining, urgency, mucus and gas) on a severity score of 0-5 as has been previously used and recommended (15-17). All questions were answered based on their recall of the preceding 7 days (17).
Subjects then underwent a LBT by ingesting 10 g of lactulose (Inalco Spa, Milano, Italy, packaged by Xactdose Inc., South Beloit, Ill.) followed by 1-2 ounces of water after an initial baseline breath sample. Breath samples were then collected at 15 minute intervals for 180 minutes. End expiratory breath samples were taken to ensure alveolar gas sampling. Samples were analyzed for hydrogen, methane and carbon dioxide using a Model SC, Quintron gas chromatograph (Quintron Instrument Company, Milwaukee, Wis.). Carbon dioxide measurements were used to correct for the quality of alveolar sampling. Measurements were plotted graphically as previously described (12). Patients and investigators were blinded to the result of the breath test.
All subjects were randomized by personnel not associated with the study to receive, in a double blind fashion, either neomycin (500 mg) (Teva pharmaceuticals, USA, Sellersville, Pa.) or matching placebo twice daily for 10 days. Seven days after completion of the antibiotic or placebo, subjects returned for a repeat questionnaire and LBT. A seven day follow up was chosen since in our experience the abnormal breath test in IBS can recur as early as two weeks after antibiotic normalization. As part of the follow up questionnaire, subjects were asked to subjectively rate the amount of improvement they experienced as a percent normalization of bowel function and repeated their perceived severity of the 9 bowel symptoms described earlier. Compliance was assessed by pill count. To comply with institutional review board requirements, follow-up LBT results could not be blinded so patients could seek appropriate medical therapy for their test result.
At the completion of enrollment, all initial and follow-up breath tests were coded and randomized by personnel not involved in the interpretation of the test. A blinded reviewer (M.P.) interpreted the results and was asked to categorize the breath tests based on whether the test met the criteria for normal LBT. […]

[2] = tested on: intestinal transit in dogs; assay: Intestinal transit in dogs with duodenal and mid-gut fistulas after bolus delivery of gas to the distal gut (99mTc-DTPA recovery); assay type: in vivo; conditions: 180 ml bolus to the distal gut at time 0, n=three dogs
Experimental: In dogs equipped with duodenal (10 cm from pylorus) and mid-gut (160 cm from pylorus) fistulas, intestinal transit was compared across an isolated 150 cm test segment (between fistulas) while the proximal segment of the gut was perfused with pH 7.0 phosphate buffer at 2 mL/min for 90 minutes. Room air (n=three dogs) or methane (n=three dogs) was delivered into the distal gut as a 180-ml bolus at time 0. Sixty minutes after the start of the perfusion, 20 μCi of ^99mTc-DTPA (diethylenetriaminepentaacetic acid) was delivered as a bolus into the proximal segment of the gut. Intestinal transit was then measured by counting the radioactivity of 1 ml samples collected every 5 minutes from the diverted output of the mid-gut fistula. Intestinal transit was calculated by determining the area under the curve (AUC) of the cumulative percent recovery of the radioactive marker in the control (air administration) and experimental (methane administration) dogs. The square root values of the AUC (Sqrt AUC), where 0=no recovery by 30 minutes and 47.4=theoretical, instantaneous complete recovery by time 0, were compared for the control and experimental animals, using 2-way repeated measures ANOVA.

Compound: Cc1ncc([N+](=O)[O-])n1CCO [flagyl]
- reduction of clinical symptoms in IBS versus placebo (IBS): superior to placebo

Compound: neomycin
- patient-reported bowel normalization ([1]; 91 subjects who completed the question): 40.1±5.3%
- subjects achieving normalization of LBT ([1]; abnormal baseline LBT, complete data, 8 out of 41): 20%
- self-reported percent bowel normalization ([1]; abnormal baseline LBT, neomycin but not successful normalization of LBT): 36.7±6.1%
- percent reduction in CS ([1]; abnormal baseline LBT, neomycin-treated group that did not achieve LBT normalization): 34.4±6.2%
- percent reduction in CS ([1]; abnormal baseline LBT, neomycin-treated group with LBT normalization): 61.7±9.4%
- self-reported percent bowel normalization ([1]; abnormal baseline LBT, normal follow up LBT after neomycin): 75.0±6.4%
- subjects with true clinical response (≧50% improvement in CS) ([1]; all subjects receiving neomycin, 24 out of 55): 43%
- odds ratio of true clinical response (≧50% improvement in CS) versus placebo ([1]; all subjects, CI=1.05-6.3): 4.3
- reduction in composite score (CS) ([1]; intention-to-treat, all subjects (n=111), neomycin 500 mg twice daily for 10 days): 35.0±0.7%
- reduction in composite score (CS) ([1]; subgroup with abnormal baseline LBT (n=93)): 35.4±0.8%
- subjects with true clinical response (≧50% improvement in CS) ([1]; subgroup with abnormal breath tests, 21 out of 46): 46%
- odds ratio of true clinical response (≧50% improvement in CS) versus placebo ([1]; subgroup with abnormal breath tests, CI=1.62-14.7): 4.8
- patient-reported bowel normalization ([1]; subgroup with abnormal initial breath tests): 44.8±5.6%
- reduction in composite score (CS) versus placebo ([1]; subjects with a normal baseline breath test): No difference
- subjects with true clinical response (≧50% reported bowel normalization) ([1]; subjects with abnormal initial breath test): 55%
- odds ratio of true clinical response (≧50% reported bowel normalization) versus placebo ([1]; subjects with abnormal initial breath test, CI=2.5-39.7): 9.6
- subjects reporting more than 50% normalization of bowel function ([1]; subjects with normal follow up LBT after neomycin, 7 out of 8): 88%
- odds ratio of true clinical response (≧50% reported bowel normalization) versus placebo ([1]; whole group who answered (n=91), CI=1.7-14.4): 4.8
- subjects with true clinical response (≧50% reported bowel normalization) ([1]; whole group who answered the question (n=91)): 50%

Compound: C [methane]
- effect on rate of intestinal transit versus room air control [2]: substantially slowed the rate of intestinal transit
- effect on rate of intestinal transit versus room air control ([2]; listed as Methane): slowed intestinal transit
